Legend:
[1] = system: mitochondria permeability transition (MPT); test: MPT modulation assay, digitonin-permeabilized MixCon cells, Ca-Green-5N, cuvette spectrofluorimeter; type: cell-based
Description: An assay was performed in order to observe the transition induction effect on MPT by the MPT effector, diamide (a thiol oxidizing agent and pro-oxidant). The assay was performed in a digitonin-permeabilized cell line of mixed cybrids, MixCon in the presence of Ca^2+ and Ca-Green-5N and monitored in an LS50B Perkin Elmer Spectrofluorimeter, but is adaptable to the FLIPR system. Initially, ethacrynic acid was added to the MixCon cells in Dulbecco's modified Eagle's medium and 10% FBS, to a final concentration of 100 micromolar and preincubated for 5 minutes to remove the ability of cells to deal with oxidative stress making cells susceptible to the pro-oxidant. The cells were then centrifuged, growth media was aspirated, and cells resuspended, at 1.1×10^7 cells/milliliter, in 2 milliliters of respiratory media containing digitonin (MM-D) whereupon the digitonin (dig) permeabilizes the cells. The suspension was then transferred to a spectrofluorimetric cuvette. The cuvette was placed in the fluorimeter and 0.3 microliters of a 254 millimolar CaCl2 stock was added to the cuvette (final CaCl2 concentration of 40 micromolar). After approximately three minutes diamide was added to the cuvette to a final concentration of 500 micromolar].

Ca^2+ uniporter [2] = system: Ca^2+ uniporter
Description: On the day of the assay a master mix solution (MM) was prepared by the addition of glutamate and malate from the stock solutions to final concentrations of 5 millimolar each, 1 millimolar MgCl2, and 0.5 micromolar Calcium-Green-5N (Molecular Probes, Eugene, Oreg.). The hexapotassium salt Calcium-Green-5N (Molecular Probes, Eugene, Oreg.) in the MM is a fluorescent dye that has low binding affinity to Ca^2+. The cell membrane permeabilizing agent digitonin (Sigma, St. Louis, Mo.) was added to MM to a final concentration of 0.007% to yield a solution designated MM-D. To this mixture CaCl2 was added to a final concentration of 6 micromolar Ca^2+ to yield a solution designated MM-D, 6 uM Ca. A 10× Ca^2+ stock solution was prepared by addition of CaCl2 to a final concentration of 200 micromolar in MM (no digitonin), and 10× solutions of FCCP were also prepared in MM to give concentrations of 0, 0.2, 0.4, 0.6, 0.8, 1.0, 2.0, 5.0, and 10.0 micromolar.
HepG2 cells (human hepatocellular carcinoma, ATCC HB-8065) were trypsinized from near-confluent flasks in growth media, Eagle's minimum essential medium (MEM) with non-essential amino acids, sodium pyruvate and Earle's balanced salt solution (BSS), 90%; FBS 10%. Cells were centrifuged, growth media aspirated, and resuspended in the permeabilizing solution MM-D, 6 uM CaCl2. The concentration of cells was adjusted to 1×10^7 cells per milliliter in solution. One hundred (100) microliters of the cell suspension (1×10^6 cells) were delivered to the 96 well microtiter plate. […]
A pulse of 12.3 microliters of the 10× stock CaCl2 solution was introduced into each of the wells of the microtiter plates after about four minutes. Emissions resulting from the binding of extramitochondrial Ca^2+ to the calcium indicator dye were monitored throughout the assay. […]
The average of the changes of fluorescence for the assays (1-12) versus time course where FCCP was added at one minute, and calcium was pulsed into the assay media at approximately 4 minutes, were determined and graphed as a function of time (FIG. 11).

[3] = system: mitochondria permeability transition (MPT); test: MPT modulation assay, digitonin-permeabilized 293T cells, cuvette spectrofluorimeter; type: cell-based, human
Description: The transition induction effect on MPT by the MPT effector, diamide (a thiol oxidizing agent and pro-oxidant) were performed with a second cell line, 293T. The 293T cells were suspended in 2 milliliters of growth media, DMEN and 10% FBS, with 100 micromolar of ethacrynic acid (1×10^7 cells/ml) and preincubated for 14 minutes to remove ability of cells to deal with oxidative stress making them susceptible to the pro-oxidant. The cells were centrifuged, media aspirated, resuspended in 2 milliliters of respiratory media containing digitonin (MM-D), and transferred into a cuvette. The digitonin (dig) in MM-TD permeabilizes the cells. The cuvette was placed in a LS50B Perkin Elmer Spectrofluorimeter and 40 micromolar CaCl2 in H2O was added into the suspension. After approximately three minutes 500 micromolar diamide was dispensed into the cuvette.

Ca^2+ uniporter [4] = molecular target: T1, Ca^2+ uniporter (Homo sapiens, UniProt Q8NE86); test: Ca^2+ uniporter assay, digitonin-permeabilized suspended HepG2 cells, Calcium-Green-5N on FLIPR, ICMA added between two Ca^2+ pulses; type: cell-based; settings: 5 micrograms/milliliter oligomycin, 2 micromolar rotenone, 1 micromolar FCCP; for mitochondrial uptake of the second Ca^2+ pulse: second Ca^2+ pulse at about t=6 min, 1 micromolar RU360
T1 construct: The effects of several intracellular Ca^2+ modulating agents (ICMAs) on permeabilized HepG2 cells were examined; endogenous in cells; host or cells: HepG2 (ATCC HB-8065), digitonin-permeabilized, in suspension
T1 sequence (Q8NE86 51-351): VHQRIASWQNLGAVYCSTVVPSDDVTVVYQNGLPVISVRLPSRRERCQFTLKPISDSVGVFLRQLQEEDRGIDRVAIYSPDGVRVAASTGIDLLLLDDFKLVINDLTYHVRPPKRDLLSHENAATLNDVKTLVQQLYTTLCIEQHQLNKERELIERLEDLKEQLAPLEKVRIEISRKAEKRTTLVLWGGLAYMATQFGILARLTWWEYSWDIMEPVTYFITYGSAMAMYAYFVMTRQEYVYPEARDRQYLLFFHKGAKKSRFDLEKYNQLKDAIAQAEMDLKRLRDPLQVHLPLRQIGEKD
T1 sequence (Q9H4I9 48-107 partner limits assumed): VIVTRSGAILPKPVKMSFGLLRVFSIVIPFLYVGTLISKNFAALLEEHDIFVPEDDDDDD
Description: A master mix solution (MM Solution) was prepared by the addition of glutamate and malate to final concentrations of 5 millimolar each, MgCl2 to a final concentration of 1 millimolar, EGTA to a final concentrations of 0 to 8 micromolar, and Calcium-Green-5N to a final concentration of 0.1 to 1.0 micromolar, to a basic KCl-based respiratory media (“BReM”) that is described in Table 3. […] The hexapotassiun salt Calcium-Green-5N (Molecular Probes, Eugene, Oreg.) in the MM Solution is a fluorescent dye that has low binding affinity to Ca^2+.
Thapsigargin (Calbiochem, San Diego, Calif.), a Ca^2+ uptake inhibitor of the endoplasmic reticulum (ER), was added to the MM Solution to a final concentration of 1 micromolar to yield a solution designated “MM-T” (i.e., Master Mix with Thapsigargin).
The cell membrane permeabilizing agent digitonin (Sigma, St. Louis, Mo.) was added to MM-T to a final concentration of from about 0.007% to about 0.03% to yield a solution referred to as “MM-TD” (i.e., Master Mix with Thapsigargin and digitonin. CaCl2 was added to MM-T to provide a solution with a determined final concentration of Ca^2+ for the determination of intracellular Ca^2+ flux.
The effects of several intracellular Ca^2+ modulating agents (ICMAs) on permeabilized HepG2 cells were examined as follows. The mitochondrial respiratory inhibitors oligomycin (Calbiochem, San Diego, Calif.) and rotenone (Calbiochem) were added to MM-T to final concentrations of 50 micrograms/milliliter and 20 micromolar, respectively. The uncoupler FCCP was similarly added to MM-T to a 10× concentration (10 micromolar) to yield a stock solution of FCCP, MM-TF (i.e., Master Mix with Thapsigargin and FCCP). The ICMA Ru360, which blocks Ca^2+ uptake into the mitochondria by the calcium uniporter, was added to MM-T to a concentration of 100 micromolar to yield MM-T360 (i.e., Master Mix with Thapsigragin and Ru360). CaCl2 was added to MM-T to yield a 10× solution of CaCl2 (120 micromolar) in MM-T.
HepG2 cells were cultured in Eagle's minimal essential medium (MEM) with non-essential amino acids, sodium pyruvate and Earle's balanced salt solution (BSS), 90%; fetal bovine serum (FBS), 10%. Cells were centrifuged (500×g) and the growth media was aspirated from the pellet. The HepG2 cells were resuspended in MM-TD at a concentration of 1×10^7 cells/milliliter, and 100 microliters of the resuspended permeabilized cells were dispensed into wells of a 96-well Costar 3603 microplate. The plate was placed into a FLIPR™ prewarmed to 37° C. MM-T, 120 micromolar Ca^2+, was dispensed into the cell-containing wells at a volume of 11.1 microliters, yielding a final assay concentration of 12 micromolar Ca^2+. The addition of Ca^2+ at this stage of the assay is referred to as the first calcium pulse and the time at which Ca^2+ is added is designated t=0.
After about three minutes (i.e., at about t=3 min.), 12.3 microliters of one of the ICMA solutions were dispensed into wells containing permeabilized cells to yield final assay concentrations of 5 micrograms/milliliter oligomycin, 2 micromolar rotenone, 1 micromolar FCCP, 1 micromolar RU360, and MM-T (no ICMA).
Cells were exposed to a second calcium pulse by the addition of 13.7 microliters of MM-T, 120 micromolar Ca^2+, to the cells after an additional 3 minutes (i.e., at about t=6 min.).

Ca^2+ uniporter [5] = molecular target: T1, Ca^2+ uniporter; test: High-throughput uniporter assay of different compounds, permeabilized HepG2 cells with and without thapsigargin, FLIPR II; type: cell-based
Excerpt: The high-throughput uniporter assay protocol, carried out as described above for suspension cells, was used to determine the effect of different compounds on mitochondria and extramitochondrial Ca^2+ concentrations in the presence or absence of the Ca^2+ uptake inhibitor of the endoplasmic reticulum, thapsigargin (Calbiochem). Agents examined in this assay include calcium channel inhibitors, pro- and anti-oxidants, mitochondrial inhibitors and uncouplers, and the Ca—UP inhibitor Ru360. On the day of the assay, solutions of the respiratory/cell permeabilizing media containing digitonin with thapsigarin (MM-TD) and without thapsigarin (MM-D) were prepared as previously described. Calcium chloride was added to each to a final concentration of 6 micromolar Ca^2+, resulting in MM-TD, 6 uM Ca and MM-D, 6 uM Ca. A MM solution was prepared with a 10× Ca^2+ concentration of 200 micromolar for the second Ca^2+ pulse. The Ca^2+-uniporter inhibitor Ru360 was prepared at a 10× concentration of 100 microliters in MM. Ten times (10×) stock solutions of the other agents were prepared for the assay by the addition of the compounds to final concentrations of 10 micromolar into MM. […] Controls include water and 10% DMSO (Sigma) in MM.
Cells of the HepG2 cell line (hepatocellular carcinoma, ATCC HB-8065) were trypsinized from near-confluent flasks in growth media (Eagle's MEM with non-essential amino acids, sodium pyruvate and Earle's BSS, 90%; FBS 10%). Cells were centrifuged, growth media was aspirated, and cells were resuspended to a concentration of 1×10^7 cells per milliliter in MM-TD, 6 uM Ca, or MM-D, 6 uM Ca. One hundred (100) microliters of the cell suspension (about 1×10^6 cells) were delivered to wells of a microtiter plate. The plate was placed in a FLIPR™ II (used in 96-well format) warmed to 37° C. An 11.1 microliter aliquot of the 10× stock solutions with water or DMSO (controls), Ru360 (Ca—UP inhibitor), or the test compounds, were dispensed into designated wells such that the assay concentration of DMSO is 0.1%, Ru360 is 10 micromolar, and each of the test compounds are at 1 micromolar concentrations. After an additional three minutes, a second addition of 12.3 microliters of the 10× CaCl2 (200 micromolar Ca^2+), was dispensed into the wells of the microtiter plate resulting in assay concentrations of 20 micromolar Ca^2 (Extramitochondrial Ca^2+ bound to the calcium indicator dye was monitored throughout and profiles of each assay; the results are presented in FIG. 12, with all thapsigargin minus (thaps−) assays in wells corresponding to columns 1-6 and thapsigargin plus (thaps+) assays in wells corresponding to columns 7-12.

[6] = system: mitochondria permeability transition (MPT); test: High-throughput MPT modulation assay, permeabilized HepG2 cells with and without thapsigargin, FLIPR 384; type: cell-based, human; settings: compounds 1 micromolar
Description: HepG2 cells (hepatocellular carcinoma, ATCC HB-8065), in suspension, were used to determine the effect of these compounds on mitochondria Ca^2+ sequestration by monitoring extramitochondrial Ca^2+ concentrations in the presence or absence of the Ca^2+ uptake inhibitor of the endoplasmic reticulum, thapsigargin (Calbiochem, San Diego, Calif.). On the day of the assay solutions of the respiratory media containing digitonin with thapsigarin (MM-TD) and without thapsigarin (MM-D) were prepared as previously described. Calcium chloride was added to each to a final concentration of 6 micromolar Ca^2+, to yield MM-TD, 6 uM Ca, and MM-D, 6 uM Ca. Ten times (10×) stock solutions were prepared for the assay by the addition of each of the compounds to final concentrations of 10 micromolar in MM. Ten times (10×) solutions of CaCl2 was prepared in MM or MM-T to concentrations of 200 micromolar, for the second addition.
The HepG2 cells were trypsinized from near-confluent flasks in growth media (Eagle's MEM with non-essential amino acids, sodium pyruvate and Earle's BSS, 90%; FBS 10%). Cells were centrifuged, media was aspirated, and the cells were resuspended to 1×10^7 cells per milliliter in MM-TD, 6 uM Ca and MM-D, 6 uM Ca, whereby Ca^2+ and the indicator dye enter the cells and Ca^2+ becomes sequestered in mitochondria. One hundred (100) microliters of the cell suspension was delivered to each well of a microtiter plate. The plate was placed in the FLIPR 384 warmed to 37° C. An 11.1 microliter volume of the 10× stock solutions with the test compounds were dispensed into designated wells such that the assay concentration are 1 micromolar. After a three minute interval, a Ca^2+ pulse of 20 micromolar was delivered by adding 12.3 microliters of the 10× CaCl2 solutions containing 200 micromolar Ca^2+.

Question: Which “further Ca^2+ release on addition of uncoupler after diamide” value ([1]; FCCP 0.1 micromolar after 500 micromolar diamide, no CsA) does the source give for `N#CC(C#N)=NNc1ccc(OC(F)(F)F)cc1` [FCCP, carbonyl cyanide p-(trifluoromethoxy)phenyl-hydrazone] here?
Answer: no further release of Ca^2+ from the mitochondria

Question: And the “Ca^2+ release on addition of uncoupler in the presence of CsA and diamide” value ([1]; FCCP after diamide with 10 micromolar CsA)?
Answer: Ca^2+ released from the mitochondria

Question: What about the “effect on CaUP activity at the lowest concentrations” value (Ca^2+ uniporter [2]; 0.02 or 0.04 uM FCCP, FCCP at 1 min, Ca^2+ pulse at about 4 min, FIG. 10) of the same compound?
Answer: difficult to distinguish from the results obtained when no FCCP was present

Question: And the “fluorescence upon addition of the agent, before the Ca^2+ pulse” value (Ca^2+ uniporter [2]; FCCP added at t=1 min to cells loaded with 6 micromolar Ca^2+, FIG. 11)?
Answer: fluorescence rises slightly

Question: What about the “effect of the uncoupler on CaUP activity with decreasing concentration” value (Ca^2+ uniporter [2]; FCCP from 1.0 uM to 0.02 uM, FIG. 10) of the same compound?
Answer: decreases in a corresponding manner

Question: And the “further Ca^2+ release on addition of uncoupler after diamide” value ([3]; FCCP 0.1 micromolar after 500 micromolar diamide)?
Answer: no increased level of fluorescence

Question: And the “release of sequestered Ca^2+ from mitochondria after addition of the agent” value (Ca^2+ uniporter [4]; added about 3 min after first 12 micromolar Ca^2+ pulse, thapsigargin present)?
Answer: caused the release of Ca^2+ from mitochondria into the cytosol

Question: And the “mitochondrial uptake of the second Ca^2+ pulse” value (Ca^2+ uniporter [4])?
Answer: could not sequester the added Ca^2+

Question: Which “fluorescence upon addition of diamide in the presence of CsA” value ([1]; diamide 500 micromolar with 10 micromolar CsA) does the source give for `CN(C)C(=O)/N=N/C(=O)N(C)C` [diamide, azodicarboxylic acid bis[dimethylamide]] here?
Answer: only a slight increase in fluorescence

Question: What about the “time until mitochondria released the sequestered Ca^2+ after diamide addition” value ([1]; diamide 500 micromolar, cells preincubated with 100 micromolar ethacrynic acid, 40 micromolar CaCl2) of the same compound?
Answer: ≤ 6 min

Question: And the “uniporter activity profile after the 20 micromolar Ca^2+ pulse” value (“uniporter activity profile” for short) (Ca^2+ uniporter [5]; test compounds 1 micromolar)?
Answer: uniporter non-inhibitory profile

Question: And the “time after which the rate of Ca^2+ release substantially increased” value ([3]; diamide 500 micromolar)?
Answer: about 7.5 minutes

Question: What about the “Ca^2+ release from mitochondria after diamide addition” value ([3]; diamide 500 micromolar, ethacrynic acid 100 micromolar preincubation 14 minutes, 40 micromolar CaCl2) of the same compound?
Answer: immediately began to slowly release Ca^2+ to the medium

Question: And the “assay profile after the 20 micromolar Ca^2+ pulse” value (“assay profile” below) [6]?
Answer: sequestering of Ca^2+ by mitochondria after the Ca^2+ pulse

Question: Which “uniporter activity profile” value (Ca^2+ uniporter [5]; test compounds 1 micromolar) does the source give for `O=C1CN(/N=C/c2ccc(-c3ccc([N+](=O)[O-])cc3)o2)C(O)=N1` [dantrolene] here?
Answer: uniporter non-inhibitory profile

Question: For `CO[C@H](C/C=C\C=C\CC/C=C/C[C@H](C)/C=C/C(=C\C(=O)O)CC(=O)O)/C(C)=C\C=C(/C)C(=O)O` [bongkrekic acid], which “assay profile” value [6] is on record?
Answer: normal mitochondria sequestration of Ca^2+

Question: How did the “uniporter activity profile” value (Ca^2+ uniporter [5]; test compounds 1 micromolar) turn out when `CC(=O)N[C@@H](CS)C(=O)O` [N-acetylcysteine] was run?
Answer: uniporter non-inhibitory profile

Question: Which “uniporter activity profile” value (Ca^2+ uniporter [5]; test compounds 1 micromolar) does the source give for `CN1CCN(CCCN2c3ccccc3Sc3ccc(C(F)(F)F)cc32)CC1` [trifluoroperazine] here?
Answer: do not possess uniporter inhibitory activity

Question: `CCC(C)N(C)C(=O)c1cc2ccccc2c(-c2ccccc2Cl)n1` (stereo not shown) [PK-11195] was tested. Which “uniporter activity profile” value (Ca^2+ uniporter [5]; test compounds 1 micromolar) did it give?
Answer: uniporter non-inhibitory profile

Question: With `COc1ccc(Cl)cc1C(=O)NCCc1ccc(S(=O)(=O)NC(=O)NC2CCCCC2)cc1` [glyburide] as the compound, how does the “uniporter activity profile” value (Ca^2+ uniporter [5]; test compounds 1 micromolar) read?
Answer: uniporter non-inhibitory profile

Question: Which “uniporter activity profile” value (Ca^2+ uniporter [5]; test compounds 1 micromolar) does the source give for `COc1ccc([C@@H]2Sc3ccccc3N(CCN(C)C)C(=O)[C@@H]2OC(C)=O)cc1` [diltiazem] here?
Answer: do not possess uniporter inhibitory activity

Question: For `N=C(N)NC(=O)c1nc(Cl)c(N)nc1N` [amiloride], which “uniporter activity profile” value (Ca^2+ uniporter [5]; test compounds 1 micromolar) is on record?
Answer: do not possess uniporter inhibitory activity

Question: How did the “fluorescence signal over the 3 minutes after compound addition (retention of the accumulated 6 micromolar Ca^2+)” value (Ca^2+ uniporter [5]; test compounds 1 micromolar) turn out when `C=C1[C@@H]2CC[C@H]3[C@]4(C)C[C@H](O[C@@H]5O[C@H](CO)[C@@H](OS(=O)(=O)O)[C@H](OS(=O)(=O)O)[C@H]5OC(=O)CC(C)C)C[C@@H](C(=O)O)[C@H]4CC[C@]3(C2)[C@H]1O` [atractyloside] was run?
Answer: slight indication of Ca^2+ release

Question: And the “assay profile” value [6]?
Answer: initial uptake of Ca^2+ into mitochondria with the slow release of the Ca^2+ into the cytosol

Question: What does the source list for Ru360?
Answer: uniporter activity profile after the 20 micromolar Ca^2+ pulse (Ca^2+ uniporter [5]; Ru360 10 micromolar): no uptake of Ca^2+ by the uniporter; mitochondrial uptake of the second Ca^2+ pulse (Ca^2+ uniporter [4]): prevented the uptake of Ca^2+ by the Ca Uniporter

Question: Which results are given for `C[C@H](CCC(=O)O)C[C@H](C)C[C@H](C)C(=O)/C=C(\O)[C@H](C)C[C@H](C)C/C=C/[C@@H](C)[C@@H](O)[C@@H](C)[C@@H](O)C[C@@H]1CC[C@@](C)([C@H]2CC[C@@](C)([C@@H](C)O)O2)O1` [ionomycin]?
Answer: fluorescence signal over the 3 minutes after compound addition (retention of the accumulated 6 micromolar Ca^2+) (Ca^2+ uniporter [5]; test compounds 1 micromolar): release Ca^2+ from cell stores; uniporter activity profile after the 20 micromolar Ca^2+ pulse (Ca^2+ uniporter [5]; test compounds 1 micromolar): prevent Ca^2+ uptake and retention by the mitochondria

Question: `CN(CC(=O)O)C(=N)N` [creatine] was tested. Which “uniporter activity profile” value (Ca^2+ uniporter [5]; test compounds 1 micromolar) did it give?
Answer: uniporter non-inhibitory profile

Question: `N#CC(C#N)=NNc1cccc(Cl)c1` [CCCP, carbonyl cyanide m-chlorophenyl-hydrazone] was tested. Which “fluorescence signal over the 3 minutes after compound addition (retention of the accumulated 6 micromolar Ca^2+)” value (Ca^2+ uniporter [5]; test compounds 1 micromolar) did it give?
Answer: release Ca^2+ from mitochondria

Question: And the “uniporter activity profile” value (Ca^2+ uniporter [5]; test compounds 1 micromolar)?
Answer: prevent Ca^2+ uptake and retention by the mitochondria
